Data from patent publication US8791133B2, “Pyridylvinylpyrazoloquinolines as PAR1 inhibitors” (Sanofi, priority 2010, dated 2014).

Target: T1, PAR1 (Homo sapiens, UniProt P25116)
T1 construct: endogenous in cells; host or cells: washed blood platelets from healthy volunteers
T1 sequence (P25116 22-425): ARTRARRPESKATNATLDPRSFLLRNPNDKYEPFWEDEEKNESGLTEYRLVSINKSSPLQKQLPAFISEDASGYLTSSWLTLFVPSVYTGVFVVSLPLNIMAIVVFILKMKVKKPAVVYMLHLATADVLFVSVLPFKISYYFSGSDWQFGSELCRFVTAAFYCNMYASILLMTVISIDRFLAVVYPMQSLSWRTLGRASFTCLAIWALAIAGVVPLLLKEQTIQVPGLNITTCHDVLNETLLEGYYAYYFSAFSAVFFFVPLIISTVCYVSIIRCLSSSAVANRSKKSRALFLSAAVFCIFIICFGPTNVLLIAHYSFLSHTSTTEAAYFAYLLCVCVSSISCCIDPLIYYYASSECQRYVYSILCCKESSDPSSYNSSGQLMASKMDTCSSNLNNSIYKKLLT
Test: Inhibition of PAR1-mediated platelet aggregation induced by TRAP (thrombin receptor-activating peptide), 96-well format
Format: cell-based
Settings: washed platelets from healthy volunteers; TRAP as agonist; AUC of kinetics at 650 nm, 37° C., 20 minutes
Experimental: PAR1 Determination Method: Inhibition of PAR1-Mediated Platelet Aggregation
The pharmacological testing of the substances took place in platelet aggregation induced by TRAP (thrombin receptor-activating peptide) in 96-well format. For this purpose, blood was taken from healthy volunteers in 20 ml syringes containing 2 ml of 3.13% strength sodium citrate solution. After centrifugation at 150×g for 20 minutes, the platelet-rich plasma (PRP) was separated off and mixed with 1 μl of PGE1 solution (500 μg/ml in ethanol)/ml of PRP. Incubation at RT for 5 minutes was followed by centrifugation at 120×g for 15 minutes to remove the leukocytes. The leukocyte-free PRP was transferred in 5 ml portions into 15 ml PP tubes and centrifuged at 360×g for 15 minutes in order to pellet the platelets. The plasma was then decanted off and the platelet sediment from 5 ml of PRP was resuspended in 1 ml of Tyrode's (120 mM NaCl, 2.6 mM KCl, 12 mM NaHCO3, 0.39 mM NaH2PO4×H2O, 10 mM HEPES, 0.35% BSA (Bovine Serum Albumin), 5.5 mM glucose, pH 7.4) and adjusted with Tyrode's to a platelet count of 3×10^5/microliter (μl). 13 μl of this cell suspension were then mixed with 866 μl of 10 mM CaCl2 solution, and 120 μl thereof were pipetted into each well of a 96-well plate containing 15 μl of the substance to be tested. After incubation at RT in the dark for 30 minutes, 15 μl of a TRAP solution (70-100 μM) were added as agonist, and kinetics were recorded at 650 nm in a SpectraMax 340 at 37° C. for 20 minutes while shaking. The areas under the curves of negative control (Tyrode's/DMSO) and positive control (15 μl of agonist/DMSO) were calculated and the difference was fixed as the 100% value. The substances to be tested were pipetted as serial dilutions in duplicate determination, the AUC was likewise determined for each substance concentration, and the % inhibition of the AUC compared with the control was calculated. On the basis of the % inhibition, the IC50 was calculated by nonlinear regression analysis according to the 4-parameter equation.

Row | Structure (SMILES) | IC50 [nM]
1 | CC(C)C1CC(=O)C2=C(C1)Nc1[nH]nc(C(=O)NCC3CC3)c1C2/C=C/c1ccc(-c2cccc(F)c2)cn1 (mixture of isomers) [Example 10, 4-{(E)-2-[5-(3-Fluorophenyl)pyridin-2-yl]vinyl}-7-isopropyl-5-oxo-4,5,6,7,8,9-hexahydro-1H-pyrazolo[3,4-b]quinoline-3-cyclopropylmethylcarboxamide] | 1390
2 | CC1CC(=O)C2=C(C1)Nc1[nH]nc(C(=O)NCC3CC3)c1C2/C=C/c1ccc(-c2cccc(F)c2)cn1 (single isomer, unassigned) [diastereomer 1 from example 13] | 5120
3 | CC(C)NC(=O)c1n[nH]c2c1C(/C=C/c1ccc(-c3cccc(F)c3)cn1)C1=C(CC(C)(C)CC1=O)N2 (stereo not shown) [Example 8, 4-{(E)-2-[5-(3-Fluorophenyl)pyridin-2-yl]vinyl}-7,7-dimethyl-5-oxo-4,5,6,7,8,9-hexahydro-1H-pyrazolo[3,4-b]quinoline-3-isopropylcarboxamide] | 1880
4 | CC(C)(C)CNC(=O)c1n[nH]c2c1C(/C=C/c1ccc(-c3cccc(F)c3)cn1)C1=C(CC(C)(C)CC1=O)N2 (stereo not shown) [Example 15, 4-{(E)-2-[5-(3-Fluorophenyl)pyridin-2-yl]vinyl}-7,7-dimethyl-5-oxo-4,5,6,7,8,9-hexahydro-1H-pyrazolo[3,4-b]quinoline-3-(2,2-dimethylpropyl)carboxamide] | 4230
5 | COCCNC(=O)c1n[nH]c2c1C(/C=C/c1ccc(-c3cccc(F)c3)cn1)C1=C(CC3(CCCC3)CC1=O)N2 (stereo not shown) [Example 43] | 1200
6 | COCCNC(=O)c1n[nH]c2c1C(/C=C/c1ccc(-c3cccc(F)c3)cn1)C1=C(CC3(CCC3)CC1=O)N2 (stereo not shown) [Example 46] | 1500
7 | O=C1CC2(CCCC2)CC2=C1C(/C=C/c1ccc(-c3cccc(F)c3)cn1)c1c(C(=O)NC3CCCC3)n[nH]c1N2 (stereo not shown) [Example 47] | 1400
8 | CC(C)(CN)CNC(=O)c1n[nH]c2c1C(/C=C/c1ccc(-c3cccc(F)c3)cn1)C1=C(CC3(CCCC3)CC1=O)N2 (stereo not shown) [Example 50] | 910
9 | CC1(CNC(=O)c2n[nH]c3c2C(/C=C/c2ccc(-c4cccc(F)c4)cn2)C2=C(CC4(CCCC4)CC2=O)N3)COC1 (stereo not shown) [Example 54] | 840

The remaining lines, values ahead:

Row | IC50 [nM] | Structure (SMILES)
10 | 380 | CC(C)(CO)CNC(=O)c1n[nH]c2c1C(C=Cc1ccc(-c3cccc(F)c3)cn1)C1=C(CC3(CCCC3)CC1=O)N2 (stereo not shown) [Example 31]
11 | < 400 | O=C1CC2(CCCC2)CC2=C1C(C=Cc1ccc(-c3cccc(F)c3)cn1)c1c(C(=O)NCC3(CO)CCC3)n[nH]c1N2 (stereo not shown) [Example 33]
12 | 410 | O=C1CC2(CCCC2)CC2=C1[C@H](/C=C/c1ccc(-c3cccc(F)c3)cn1)c1c(C(=O)NCC3(CO)CC3)n[nH]c1N2 [Example 35]
13 | 460 | CC(C)(CO)CNC(=O)c1n[nH]c2c1C(C=Cc1ccc(-c3cccc(F)c3)cn1)C1=C(CC3(CCC3)CC1=O)N2 (stereo not shown) [Example 36]
14 | 710 | CN1C2=C(C(=O)CC3(CCCC3)C2)C(/C=C/c2ccc(-c3cccc(F)c3)cn2)c2c(C(=O)NCC(C)(C)C)n[nH]c21 (stereo not shown) [Example 37]
15 | 820 | O=C1CC2(CCCC2)CC2=C1C(/C=C/c1ccc(-c3cccc(F)c3)cn1)c1c(C(=O)NC[C@H]3C[C@@H](O)C3)n[nH]c1N2 (stereo partly shown) [Example 38]
16 | 450 | COC(C)(C)CNC(=O)c1n[nH]c2c1C(C=Cc1ccc(-c3cccc(F)c3)cn1)C1=C(CC3(CCCC3)CC1=O)N2 (stereo not shown) [Example 39]
